Common to all, as to experiment: NCI anticancer screen, dose series, 48 h
The subject of experiment [1] is RPMI-8226 leukemia.
The test system of experiment [2] is MOLT-4 leukemia.
Experiment [3] has as its system SK-MEL-5 melanoma.
In experiment [4] the test system is UACC-62 melanoma.
For experiment [5], the system named is LOX IMVI melanoma.
Experiment [6] relates to OVCAR-8 ovarian.

SMILES strings stand for the structures.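 Values below derive from 48-hour exposures of cells grown in 96-well plates, with endpoints linearly interpolated between the two concentrations bracketing the appropriate inhibition level. Definition used: TGI = concentration required for complete inhibition of growth.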

For `CCN(CCCl)c1cc(CN(C)C)cc(NC(=O)c2ccc(C(=O)Nc3cccc(N(CCCl)NN)c3)cc2)c1`, the TGI was 31800 nM in experiment [1]; 28.5 nM in experiment [2]; 174 nM in experiment [3]; 324 nM in experiment [4]; 34 nM in experiment [5]; 942 nM in experiment [6].

The record behind these values is PubChem BioAssay (NCI).
